A word on the EC50: it is the concentration giving half of the maximal effect. As a reminder, the solubility is the concentration that dissolves in the medium under given conditions.

We go through 14 compounds from patent US20230020329A1, “Annelated 9-hydroxy-1,8-dioxo-1,3,4,8-tetrahydro-2H-pyrido[1,2-a]pyrazine-7-carboxamides as HIV integrase inhibitors, methods of preparation and application thereof” (priority 2019, published 2023).

In brackets after ≈: the same amount, converted by molar mass. Like-named read-outs stand apart in the source and are kept apart here.

Data set [1] concerns HIV-1 (IIIB strain). The data set is described as follows: Anti-HIV cytoprotection assay (XTT), HIV-1 IIIB in CEM-SS cells. The format is cell-based. The conditions noted are these: CEM-SS cell line, read-out: Inhibitory activity (EC50) against HIV-1 (IIIB strain). The method in brief:
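CEM-SS cells infected with a pre-titrated virus dose killing 85–95% of cells by day 6; protection from HIV-induced death read by XTT formazan. Compounds screened in triplicate at 30 and 10 nM, actives retested at 2 nM; AZT six-concentration curve on each plate as positive control.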
A general note: Tetrazolium assays rely on reduction of a dye to a coloured formazan, in cell work by metabolically active cells.

Data set [2] in a line: Thermodynamic (shake-flask) solubility. The class given is physicochemical. The conditions noted are these: for solubility at 24 h: thermodynamic from solid. As for the experimental part:
The test compound of general formula 1 or 2 (2 mg) was weighed into a glass vial. The pION universal buffer (0.5 ml) with pH 7.4 or deionized water was added to appropriate vials. The vials were tightly closed with a lid, placed on a rotating shaker, and incubated for 24 hours to balance the solution and the solid phase at the saturation point. Each resulting solution (200 μl) was taken (in duplicate) from the vials, placed in a 96-well MultiScreen Solubility Filter Plate (Millipore), and filtered using vacuum ([…]) into a polypropylene plate with a U-shaped bottom. If necessary, the filtrates were diluted with an appropriate buffer (water). Then, 120 μl of the filtarate (or a diluted filtrate) was transferred to a 96-well plate with a UV-transparent bottom and 60 μl/well of acetonitrile and 20 μl/well of DMSO were added and thoroughly mixed with a multichannel pipette (acetonitrile and DMSO were added to obtain a required composition of calibration standards, as described below). The optical density of the resulting solutions was measured on a multifunction Infinite 200 PRO plate reader in the wavelength range from 240 nm to 400 nm in steps of 10 nm. The value of ODλ for solutions was assessed at a wavelength chosen for plotting a calibration curve.
The concentration of a substance in the solution after the solubility test was evaluated using a calibration curve. A stock solution in DMSO with a concentration of 2 mg/ml was prepared from a separate sample. […] The range of final concentrations of the calibration curve was 0.2; 0.1; 0.05; 0.025; 0.0125; 0.00625, and 0 mg/ml. Calibration solutions were prepared in a 96-well UV plate as follows: 20 μl of a 10-fold stock solution in DMSO, 60 μl of acetonitrile, and 120 μl of the appropriate buffer were added to the well and stirred. The optical density of the resulting solutions was measured on a multifunction Infinite 200 PRO plate reader in the wavelength range from 240 nm to 400 nm with a step of 10 nm. The optimal wavelength typically corresponding to the absorption maximum was chosen, and a linear dependence of OD at a given wavelength on the concentration of the compound was obtained.
The concentration of the compound in the filtrate after the solubility test was calculated according to the formula:
shake-flask solubility=(ODλfiltrate−ODλblank)/(slope×1.67×filtrate dilution)
wherein slope means the slope of the calibration curve; 1.67 is the filtrate acetonitrile+DMSO dilution ratio; filtrate dilution is an additional dilution of the filtrate, if applicable.

Data set [3] deals with HIV-1 (NL4.3 strain) carrying the GFP reporter gene (NL4.3-GFP). The data set is described as follows: HIV-1 NL4.3-GFP infection of SupT1 cells. The class given is cell-based. The conditions noted are these: Human immunodeficiency virus 1, SUP-T1, read-out: Inhibitory activity (EC50) of HIV-1 (NL4.3 strain) carrying the GFP reporter gene. As for the experimental part: 6. Inhibitory Activity of HIV-1 (NL4.3 Strain) Carrying the GFP Reporter Gene (NL4.3-GFP) in the SuPT1 Cell Line.
The evaluation was done by RetroVirox Inc. (San Diego, Calif., USA). SupT1 cells were infected with the HIV NL4.3 strain carrying the green fluorescent protein gene (NL4.3-GFP). The virus sample was produced by transfection of 293T cells with proviral DNA. The sample was frozen 48 hours after transfection and stored until use. To enhance the efficiency of infection, a suspension of SupT1 cells was precipitated from the infectious mixture by centrifugation. Test substances were added to the cells immediately before adding the virus. After 2 hours of incubation, the infectious mixture was replaced with a fresh culture medium containing test samples. The effectiveness of the infection was determined after 45 hours by counting the percentage of fluorescent cells in comparison with uninfected cell cultures. The cytotoxicity of the test compounds was determined in parallel on the same, but not infected, SupT1 cell line using the XTT reagent. Serial tenfold dilutions of the samples (starting from 10 μM when determining antiviral activity or from 100 μM for determining cytotoxicity). As a negative control, 0.1% DMSO was used. The values of EC50 were calculated. The quality of the tests was determined using the following controls: signal-to-noise ratio, integrase inhibitor raltegravir (1 μM), and test reproducibility.
(Reporter assays use an easily measured gene product as a stand-in for the process of interest.)

Data set [4] deals with HIV. The conditions noted are these: depending on the method of analysis; read-out: Inhibitory activity EC50 (literature); cited from earlier work.
The mark [5] stands for this setting: Human immunodeficiency virus 1, IIIB, CEM-SS.
The mark [6] stands for this setting: aqueous buffer, pION universal buffer pH 7.4, 24 h, read-out: Solubility, pH 7.4, value.
Where [7] appears, read: deionized water, 24 h, read-out: Solubility, water, value.
The mark [8] stands for this setting: deionized water, water, read-out: Solubility in water.

`C[C@H]1CO[C@@H]2Cn3cc(C(=O)NCc4cccs4)c(=O)c(O)c3C(=O)N12` [Compound 1.1.1, (3S,11aR)-6-hydroxy-3-methyl-5,7-dioxo-N-(2-thienylmethyl)-2,3,5,7,11,11a-hexahydro[1,3]oxazolo[3,2-a]pyrido[1,2-d]pyrazine-8-carboxamide]: the EC50 in data set [1] (setting [5]) came out at 1.44 nM. For the same compound, the solubility at 24 h came to 24 µg/mL (≈ 63.9 µM) in data set [2] (setting [6]) and 33 µg/mL (≈ 87.9 µM) in data set [2] (setting [7]).
In the case of `C[C@H]1CO[C@@H]2Cn3cc(C(=O)NCc4nn(C)c(Cl)c4Cl)c(=O)c(O)c3C(=O)N12` [Compound 1.1.7, (3S,11aR)-6-hydroxy-N-[(4,5-dichloro-1-methyl-1H-pyrazol-3-yl)methyl]3-methyl-5,7-dioxo-2,3,5,7,11,11a-hexahydro[1,3]oxazolo[3,2-a]pyrido[1,2-d]pyrazine-8-carboxamide], in data set [1] (setting [5]), the EC50 was 0.59 nM. For the same compound, the solubility at 24 h in data set [2] (setting [6]) and in data set [2] (setting [7]) was 318 µg/mL (≈ 719 µM) throughout.
As for `C[C@H]1CO[C@@H]2Cn3cc(C(=O)NCc4ncccc4F)c(=O)c(O)c3C(=O)N12` [Compound 1.1.16, (3S,11aR)-6-hydroxy-3-methyl-N-[(3-fluoropyridin-2-yl)methyl]-5,7-dioxo-2,3,5,7,11,11a-hexahydro[1,3]oxazolo[3,2-a]pyrido[1,2-d]pyrazine-8-carboxamide], the concentration for a half-maximal effect (EC50) is 10 to 30 nM in data set [1] (setting [5]) and 10.5 nM in data set [3].
`C[C@H]1CO[C@@H]2Cn3cc(C(=O)NCc4ccc(F)nc4F)c(=O)c([O-])c3C(=O)N12.[Na+]` [Compound 1.1.20, Sodium (3S,11aR)-8-({[(2,6-difluoropyridin-3-yl)methyl]amino}carbonyl)-3-methyl-5,7-dioxo-2,3,5,7,11,11a-hexahydro[1,3]oxazolo[3,2-a]pyrido[1,2-d]pyrazin-6-olate]: the EC50 in data set [1] worked out at 4.8 nM. In addition, the solubility at 24 h in data set [2] (setting [6]) came out at 1680 µg/mL; in data set [2] (setting [8]) it was 2680 µg/mL. Also, in data set [2] (deionized water, 24 h), the “Solubility, water, value” was 2679 µg/mL.
On to `C[C@H]1CO[C@@H]2Cn3cc(C(=O)NCc4ccncc4F)c(=O)c(O)c3C(=O)N12` [Compound 1.1.23, (3S,11aR)-6-hydroxy-3-methyl-N-[(3-fluoropyridin-4-yl)methyl]-5,7-dioxo-2,3,5,7,11,11a-hexahydro[1,3]oxazolo[3,2-a]pyrido[1,2-d]pyrazine-8-carboxamide], for which the concentration giving a half-maximal response (EC50) in data set [1] (setting [5]) was in the range of 10 to 30 nM. The values for the solubility at 24 h in data set [2] (setting [6]) and in data set [2] (setting [7]) were 91 µg/mL (≈ 234 µM) and 78 µg/mL (≈ 201 µM), respectively.
For the compound `C[C@H]1CO[C@@H]2Cn3cc(C(=O)NCc4c(F)cncc4F)c(=O)c(O)c3C(=O)N12` [Compound 1.1.24, (3S,11aR)-6-hydroxy-N-[(3,5-difluoropyridin-4-yl)methyl]-3-methyl-5,7-dioxo-2,3,5,7,11,11a-hexahydro[1,3]oxazolo[3,2-a]pyrido[1,2-d]pyrazine-8-carboxamide], the EC50 in data set [1] (setting [5]) turned out to be 2.63 nM. Also, the solubility at 24 h in data set [2] (setting [6]) turned out to be 380 µg/mL (≈ 935 µM); in data set [2] (setting [7]), 347 µg/mL (≈ 854 µM).
For the compound `Cc1cc2c(cc1CNC(=O)c1cn3c(c(O)c1=O)C(=O)N1[C@@H](C)CO[C@@H]1C3)OCCO2` [Compound 1.1.36, (3S,11aR)-6-hydroxy-3-methyl-N-[(7-methyl-2,3-dihydro-1,4-benzodioxin-6-yl)methyl]-5,7-dioxo-2,3,5,7,11,11a-hexahydro[1,3]oxazolo[3,2-a]pyrido[1,2-d]pyrazine-8-carboxamide], the EC50 in data set [1] (setting [5]) is 10 to 30 nM. Also, the solubility at 24 h in data set [2] (setting [6]) was 70 µg/mL (≈ 159 µM); in data set [2] (setting [7]), 56 µg/mL (≈ 127 µM).
For the compound `C[C@H]1CO[C@@H]2Cn3cc(C(=O)NCc4nc5ccccc5s4)c(=O)c(O)c3C(=O)N12` [Compound 1.1.37, (3S,11aR)-N-(1,3-benzothiazol-2-ylmethyl)-6-hydroxy-3-methyl-5,7-dioxo-2,3,5,7,11,11a-hexahydro[1,3]oxazolo[3,2-a]pyrido[1,2-d]pyrazine-8-carboxamide], the EC50 in data set [1] (setting [5]) was 1.93 nM. The solubility at 24 h in data set [2] (setting [6]) and in data set [2] (setting [7]) was 21 µg/mL (≈ 49.2 µM) throughout.
As to `C[C@H]1CO[C@@H]2Cn3cc(C(=O)NCc4ccc5nonc5c4)c(=O)c(O)c3C(=O)N12` [Compound 1.1.48, (3S,11aR)-N-(2,1,3-benzoxadiazol-5-ylmethyl)-6-hydroxy-3-methyl-5,7-dioxo-2,3,5,7,11,11a-hexahydro[1,3]oxazolo[3,2-a]pyrido[1,2-d]pyrazine-8-carboxamide], the EC50 in data set [1] (setting [5]) is 0.43 nM. Moreover, the solubility at 24 h stood at 3.2 µg/mL (≈ 7.78 µM) in data set [2] (setting [6]) and 2.85 µg/mL (≈ 6.93 µM) in data set [2] (setting [8]). Besides, the “Solubility, water, value” in data set [2] (deionized water, 24 h) stood at 2.85 µg/mL (≈ 6.93 µM).
For the compound `Cc1cc(CNC(=O)c2cn3c(c(O)c2=O)C(=O)N2[C@@H](C)CO[C@@H]2C3)c2ccccc2n1` [Compound 1.1.51, (3S,11aR)-6-hydroxy-3-methyl-N-(2-methylquinolin-4-ylmethyl)-5,7-dioxo-2,3,5,7,11,11a-hexahydro[1,3]oxazolo[3,2-a]pyrido[1,2-d]pyrazine-8-carboxamide], the EC50 in data set [1] (setting [5]) lay in the range of 2 to 10 nM. The solubility at 24 h in data set [2] (setting [6]) was determined as 8 µg/mL (≈ 18.4 µM); in data set [2] (setting [7]), 31 µg/mL (≈ 71.4 µM).
On to `C[C@H]1CO[C@@H]2Cn3cc(C(=O)NCc4cccc5cccnc45)c(=O)c(O)c3C(=O)N12` [Compound 1.1.54, (3S,11aR)-6-hydroxy-3-methyl-N-(quinolin-8-ylmethyl)-5,7-dioxo-2,3,5,7,11,11a-hexahydro[1,3]oxazolo[3,2-a]pyrido[1,2-d]pyrazine-8-carboxamide], for which the EC50 in data set [1] (setting [5]) worked out at 2.17 nM. Besides, the solubility at 24 h in data set [2] (setting [6]) stood at 6 µg/mL (≈ 14.3 µM); in data set [2] (setting [7]), 10 µg/mL (≈ 23.8 µM).
On to `C[C@H]1CO[C@@H]2Cn3cc(C(=O)NCc4nccc5ccccc45)c(=O)c(O)c3C(=O)N12` [Compound 1.1.55, (3S,11aR)-6-hydroxy-N-(isoquinolin-1-ylmethyl)-3-methyl-5,7-dioxo-2,3,5,7,11,11a-hexahydro[1,3]oxazolo[3,2-a]pyrido[1,2-d]pyrazine-8-carboxamide], for which the EC50 is 2 to 10 nM in data set [1] (setting [5]) and 14.5 nM in data set [3].
Take `C[C@@H]1CCO[C@H]2Cn3cc(C(=O)NCc4ccc(F)nc4F)c(=O)c(O)c3C(=O)N12` [Compound 1.2.1, (4R,12aS)-7-hydroxy-N-[(2,6-difluoropyridin-3-yl)methyl]-4-methyl-6,8-dioxo-3,4,6,8,12,12a-hexahydro-2H-pyrido[1′,2′:4,5]pyrazino[2,1-b][1,3]oxazine-9-carboxamide]: in data set [1] (setting [5]), the EC50 is 5.15 nM. The values for the solubility at 24 h in data set [2] (setting [6]) and in data set [2] (setting [7]) were 80 µg/mL (≈ 190 µM) and 57 µg/mL (≈ 136 µM), respectively.
Take `C[C@@H]1CCO[C@H]2Cn3cc(C(=O)NCc4ccc(F)cc4F)c(=O)c(O)c3C(=O)N12` [DTG, Dolutegravir]: the EC50 in data set [4] was 1.1 to 7.4 nM.
